This passage reports IC50 and inhibition results from ChEMBL document CHEMBL1132548, “Exploring the structure-activity relationships of [1-(4-tert-butyl-3'-hydroxy)benzhydryl-4-benzylpiperazine] (SL-3111), a high-affinity and selective delta-opioid receptor nonpeptide agonist ligand” (J Med Chem, 1999).

Assay [1] concerns the target Mu-type opioid receptor (Mus musculus, UniProt P42866). Description: Agonist activity using electrically induced smooth muscle contraction of mouse vas deferens. In kind it is functional.
In assay [2] the target is Mu-type opioid receptor (Rattus norvegicus, UniProt P33535). Description: In vitro inhibition of [3H]DAMGO (Tyr-D-Ala-Gly-(Me)-Phe-Gly-ol) binding to Opioid receptor mu 1 using rat brain membranes. In kind it is cell membranes, Membrane.
Sequence of Mu-type opioid receptor (Rattus norvegicus, UniProt P33535) (P33535 whole entry): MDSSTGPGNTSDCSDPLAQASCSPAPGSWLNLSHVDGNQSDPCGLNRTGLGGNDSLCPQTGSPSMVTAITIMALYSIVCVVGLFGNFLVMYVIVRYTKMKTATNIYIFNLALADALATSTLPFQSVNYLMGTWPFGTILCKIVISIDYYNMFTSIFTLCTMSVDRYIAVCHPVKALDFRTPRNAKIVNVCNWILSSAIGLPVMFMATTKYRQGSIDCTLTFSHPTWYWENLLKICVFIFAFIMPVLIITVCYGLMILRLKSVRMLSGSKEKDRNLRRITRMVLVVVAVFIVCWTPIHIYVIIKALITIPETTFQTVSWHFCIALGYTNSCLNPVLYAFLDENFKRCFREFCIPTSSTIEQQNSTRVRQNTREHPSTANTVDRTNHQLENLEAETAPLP
Assay [3] has as its target T1, Delta-type opioid receptor (Rattus norvegicus, UniProt P33533). Description: In vitro inhibition of [3H]deltorphin binding to Opioid receptor delta 1 using rat brain membranes. In kind it is cell membranes, Membrane.
Assay [4] concerns the target Mu-type opioid receptor (Homo sapiens) (UniProt P35372). Description: Agonist activity using strips of guinea pig ileum longitudinal muscle myenteric plexus at 30 uM. It is filed as functional, tissue-based.
In assay [5] the target is T1, Delta-type opioid receptor. The assay is described as follows: In vitro inhibition of [3H]- [p-Cl-Phe4]DPDPE binding to Opioid receptor delta 1 using rat brain membranes. It is filed as cell membranes, Membrane.
For assay [6], the target named is Mu-type opioid receptor (Cavia porcellus, UniProt P97266). The assay is described as follows: Agonist activity using strips of guinea pig ileum longitudinal muscle myenteric plexus. It is filed as functional, tissue-based.
Sequence of Mu-type opioid receptor (Cavia porcellus, UniProt P97266) (P97266 whole entry): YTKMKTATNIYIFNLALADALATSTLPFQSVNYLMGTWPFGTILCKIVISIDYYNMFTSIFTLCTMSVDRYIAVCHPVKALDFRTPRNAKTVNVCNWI
In assay [7] the target is Mu-type opioid receptor (Mus musculus) (UniProt P42866). Conditions: Vas deferens; 1 uM.
Sequence of Mu-type opioid receptor (Mus musculus) (P42866 whole entry): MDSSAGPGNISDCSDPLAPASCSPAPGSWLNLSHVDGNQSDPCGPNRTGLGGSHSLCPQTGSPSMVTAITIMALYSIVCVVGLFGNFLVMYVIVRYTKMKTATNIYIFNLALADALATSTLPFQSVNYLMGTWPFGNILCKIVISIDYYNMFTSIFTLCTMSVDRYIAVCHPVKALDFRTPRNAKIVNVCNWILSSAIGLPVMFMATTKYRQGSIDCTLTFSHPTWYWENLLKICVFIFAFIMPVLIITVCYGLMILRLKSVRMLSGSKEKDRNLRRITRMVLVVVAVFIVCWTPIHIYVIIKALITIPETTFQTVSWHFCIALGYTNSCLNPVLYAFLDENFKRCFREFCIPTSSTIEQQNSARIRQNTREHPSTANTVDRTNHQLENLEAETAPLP
Description: Agonist activity using electrically induced smooth muscle contraction of mouse vas deferens at 1 uM
Assay [8] deals with Mu-type opioid receptor (Homo sapiens) (UniProt P35372). Particulars: guinea pig; Ileum; at 10 µM.
Sequence of Mu-type opioid receptor (Homo sapiens) (P35372 whole entry): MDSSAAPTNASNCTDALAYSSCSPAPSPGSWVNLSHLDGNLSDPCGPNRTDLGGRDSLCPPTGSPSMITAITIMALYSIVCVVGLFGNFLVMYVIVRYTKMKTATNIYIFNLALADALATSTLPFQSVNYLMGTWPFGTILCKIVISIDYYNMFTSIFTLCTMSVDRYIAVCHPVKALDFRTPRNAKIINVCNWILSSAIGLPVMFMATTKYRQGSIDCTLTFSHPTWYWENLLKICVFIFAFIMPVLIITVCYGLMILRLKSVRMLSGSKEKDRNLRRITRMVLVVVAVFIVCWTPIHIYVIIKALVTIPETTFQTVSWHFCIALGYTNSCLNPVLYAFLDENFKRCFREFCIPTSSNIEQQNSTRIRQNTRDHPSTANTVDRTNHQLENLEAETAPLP
The target in assay [9] is Mu-type opioid receptor (Cavia porcellus) (UniProt P97266). The assay is described as follows: Agonist activity using strips of guinea pig ileum longitudinal muscle myenteric plexus at 10 uM. In kind it is functional, tissue-based.
Sequence of Mu-type opioid receptor (Cavia porcellus) (P97266 whole entry): as the sequence (P97266 whole entry) above
Assay [10] has as its target Mu-type opioid receptor (Mus musculus) (UniProt P42866). The assay is described as follows: Agonist activity using electrically induced smooth muscle contraction of mouse vas deferens at 30 uM. It is filed as functional, tissue-based.

Broadly, the IC50 is the concentration needed to halve the response being measured. Lower therefore signals greater potency in that assay. Broadly, the inhibition is the relative decrease from the control value, in per cent. A lower inhibition goes with a weak effect.

Sequence of Mu-type opioid receptor (Mus musculus, UniProt P42866) (P42866 whole entry): as the sequence (P42866 whole entry) above
T1 sequence (P33533 whole entry): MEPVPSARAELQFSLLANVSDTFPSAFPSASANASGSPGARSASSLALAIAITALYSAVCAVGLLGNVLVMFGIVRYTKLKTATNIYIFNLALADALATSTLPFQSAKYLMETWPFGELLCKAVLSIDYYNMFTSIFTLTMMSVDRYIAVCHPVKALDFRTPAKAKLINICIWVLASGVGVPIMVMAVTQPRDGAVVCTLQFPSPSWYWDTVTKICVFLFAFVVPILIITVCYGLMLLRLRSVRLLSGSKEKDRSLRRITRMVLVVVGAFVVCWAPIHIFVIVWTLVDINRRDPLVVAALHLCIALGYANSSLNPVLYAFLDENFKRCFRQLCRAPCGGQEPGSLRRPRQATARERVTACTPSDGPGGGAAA

As to `C[C@H]1CN(Cc2ccccc2)CCN1C(c1ccc(C(C)(C)C)cc1)c1cccc(O)c1` (stereo partly drawn), the values for the IC50 in [1], in assay [2] and in [3] were 290 nM, 3.3 µM and 11 nM, respectively. In [4], this compound gave an inhibition of 0%.

For `O=C(OCc1ccc(O)cc1)N1CSC(=S)N(Cc2ccccc2)C1`, the IC50 in assay [5] is 44.7 µM; in [2], 38.3 µM.

On to `CC(C)(C)c1ccc(C(c2cccc(O)c2)C2CCN(Cc3ccccc3)CC2)cc1` (stereo not drawn), for which the IC50 in assay [1] was 390 nM; in assay [6] it was 15.6 µM; in assay [2] it was 4.3 µM; in assay [3] it was 33 nM.

On to `CC(C)(C)c1ccc(C(c2cccc(O)c2)N2CCC(Cc3ccccc3)CC2)cc1` (stereo not drawn), for which the IC50 in assay [2] is 22.9 µM; in assay [3], 12600 nM.

In the case of `CC(C)(C)c1ccc(C(c2cccc(O)c2)N2CCN(Cc3ccccc3)C[C@@H]2Cc2ccccc2)cc1` (stereo in doubt; 15c1) [listing 1 of 2 here], the results for the inhibition in [7] and in assay [4] were 10% and 0%, respectively.

Consider `CC(C)(C)c1ccc(C(c2cccc(O)c2)N2CCN(Cc3ccccc3)C[C@@H]2Cc2ccccc2)cc1` (stereo in doubt; 15c2), for which the figures for the IC50 in assay [2] and in [3] were 46.3 µM and 21300 nM, respectively.

As to `CC(C)(C)c1ccc(C(c2cccc(O)c2)N2CCN(Cc3ccccc3)C[C@@H]2Cc2ccccc2)cc1` (stereo in doubt; 15c1) [listing 2 of 2 here], the half-inhibitory concentration (IC50) in assay [2] is greater than 80 µM; in [3], greater than 10000 nM.

Regarding `CC(C)(C)c1ccc(C(c2cccc(O)c2)N2CCN(Cc3ccccc3)C[C@@H]2CO)cc1` (stereo partly drawn), the 50% inhibitory concentration (IC50) in [1] was found to be 2260 nM; in assay [2], 7.98 µM; in assay [3] it was 38 nM. The same compound had an inhibition in [8] of 36%.

For `CC(C)(C)c1ccc(C(c2cccc(O)c2)N2CCN(Cc3ccccc3)C[C@@H]2COCc2ccccc2)cc1` (stereo partly drawn), the inhibition in [9] was 0%; in assay [10], 44%. Also, the IC50 in [2] came to 26 µM; in assay [3] it was 38 nM.

In the case of `S=C1SCN(Cc2ccccc2)CN1Cc1ccccc1` [SULBENTINE], the IC50 in [5] amounted to 28.6 µM; in assay [2] it was 27.9 µM.
